What follows are compounds tested against recombinant human Nav1.7 (Homo sapiens (Human), UniProt Q15858) (assay: FRET-based membrane potential assay, recombinant human sodium channel Nav1.7). Conditions: HEK293 cells stably expressing recombinant human Nav1.7; veratridine + scorpion venom depolarization; read-out: FRET-Membrane Potential Nav1.7 IC50.
Chain of recombinant human Nav1.7 (Q15858 whole entry): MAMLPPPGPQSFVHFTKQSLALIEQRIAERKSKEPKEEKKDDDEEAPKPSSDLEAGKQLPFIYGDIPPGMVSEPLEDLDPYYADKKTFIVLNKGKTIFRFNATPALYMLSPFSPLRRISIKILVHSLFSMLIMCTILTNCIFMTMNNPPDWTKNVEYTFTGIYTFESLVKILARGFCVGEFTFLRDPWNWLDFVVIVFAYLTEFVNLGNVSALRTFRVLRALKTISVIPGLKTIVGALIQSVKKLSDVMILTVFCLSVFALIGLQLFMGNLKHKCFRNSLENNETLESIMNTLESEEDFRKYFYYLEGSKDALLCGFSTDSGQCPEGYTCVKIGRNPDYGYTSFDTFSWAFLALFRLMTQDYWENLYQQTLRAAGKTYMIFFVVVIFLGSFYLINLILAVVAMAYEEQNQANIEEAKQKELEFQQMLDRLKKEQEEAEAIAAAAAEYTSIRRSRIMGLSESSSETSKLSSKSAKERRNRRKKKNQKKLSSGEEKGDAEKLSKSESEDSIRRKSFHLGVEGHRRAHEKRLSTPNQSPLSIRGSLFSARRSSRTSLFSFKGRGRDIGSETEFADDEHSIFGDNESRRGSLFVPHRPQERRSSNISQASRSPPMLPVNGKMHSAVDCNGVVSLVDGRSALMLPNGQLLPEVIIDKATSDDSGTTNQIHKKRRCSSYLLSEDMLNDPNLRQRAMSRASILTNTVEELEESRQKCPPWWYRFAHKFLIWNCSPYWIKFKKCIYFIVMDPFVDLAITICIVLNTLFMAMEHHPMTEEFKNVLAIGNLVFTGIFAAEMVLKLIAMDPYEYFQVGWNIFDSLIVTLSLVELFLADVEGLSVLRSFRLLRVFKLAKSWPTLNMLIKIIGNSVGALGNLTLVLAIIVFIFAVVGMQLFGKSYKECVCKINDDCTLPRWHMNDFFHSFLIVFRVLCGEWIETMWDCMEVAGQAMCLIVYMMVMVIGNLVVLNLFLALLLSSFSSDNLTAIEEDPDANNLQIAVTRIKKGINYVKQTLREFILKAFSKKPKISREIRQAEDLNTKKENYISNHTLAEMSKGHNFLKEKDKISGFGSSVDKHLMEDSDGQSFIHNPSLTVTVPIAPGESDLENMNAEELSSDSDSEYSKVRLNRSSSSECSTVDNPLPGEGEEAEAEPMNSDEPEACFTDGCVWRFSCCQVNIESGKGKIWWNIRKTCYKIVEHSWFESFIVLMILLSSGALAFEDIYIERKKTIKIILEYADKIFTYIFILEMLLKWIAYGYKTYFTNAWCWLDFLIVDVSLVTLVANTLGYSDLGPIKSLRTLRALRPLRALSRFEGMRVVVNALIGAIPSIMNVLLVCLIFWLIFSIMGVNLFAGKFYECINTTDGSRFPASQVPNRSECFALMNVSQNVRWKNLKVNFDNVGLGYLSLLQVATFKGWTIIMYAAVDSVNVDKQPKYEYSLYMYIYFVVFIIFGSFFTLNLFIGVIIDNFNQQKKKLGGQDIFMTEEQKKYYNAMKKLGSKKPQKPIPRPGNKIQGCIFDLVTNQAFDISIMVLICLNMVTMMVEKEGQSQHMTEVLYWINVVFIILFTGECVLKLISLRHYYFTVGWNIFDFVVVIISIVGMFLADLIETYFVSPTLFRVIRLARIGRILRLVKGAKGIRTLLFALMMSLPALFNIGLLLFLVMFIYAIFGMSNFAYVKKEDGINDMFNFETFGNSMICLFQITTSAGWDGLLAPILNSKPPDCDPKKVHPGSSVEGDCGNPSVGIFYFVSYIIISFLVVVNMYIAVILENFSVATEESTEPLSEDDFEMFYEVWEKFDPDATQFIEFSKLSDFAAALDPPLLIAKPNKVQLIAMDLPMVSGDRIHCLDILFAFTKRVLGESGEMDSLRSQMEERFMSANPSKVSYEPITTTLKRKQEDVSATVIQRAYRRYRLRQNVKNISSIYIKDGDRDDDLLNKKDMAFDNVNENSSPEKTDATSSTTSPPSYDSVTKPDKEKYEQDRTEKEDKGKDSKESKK
Type: cell-based
Procedure, shortened: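 Channel activation used veratridine at its EC80, set by a dilution curve each experiment, together with Leiurus scorpion venom, added 3 min after compound. Membrane-potential ratio signals from FLIPR Tetra in HEPES-buffered HBSS were fitted to a four-parameter Hill equation for percent inhibition and IC50.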
`N[C@@H]1CCN(C(=O)c2ccc3cc(Oc4ccc(C(F)(F)F)cn4)ccc3n2)C1` [Example 310, [(3R)-3-aminopyrrolidin-1-yl](6-{[5-(trifluoromethyl)pyridin-2-yl]oxy}quinolin-2-yl)methanone] gave an IC50 of 0.665 µM. `O=C(c1ccc2cc(Oc3ccc(C(F)(F)F)cn3)ccc2n1)N1CCCC(F)(F)C1` [Example 312, (3,3-difluoropiperidin-1-yl)(6-{[5-(trifluoromethyl)pyridin-2-yl]oxy}quinolin-2-yl)methanone] was tested, and the IC50 was 6.93 µM. With `O=C(c1ccc2cc(Oc3ccc(C(F)(F)F)cn3)ccc2n1)N1CCC[C@@]12CC[C@H](O)C2` [Example 313, [(5S,7S)-7-hydroxy-1-azaspiro[4.4]non-1-yl](6-{[5-(trifluoromethyl)pyridin-2-yl]oxy}quinolin-2-yl)methanone] the IC50 was 14 µM. `O=C(c1ccc2cc(Oc3ccc(C(F)(F)F)cn3)ccc2n1)N1CCN(Cc2cocn2)CC1` [Example 315, [4-(1,3-oxazol-4-ylmethyl)piperazin-1-yl](6-{[5-(trifluoromethyl)pyridin-2-yl]oxy}quinolin-2-yl)methanone] was tested, and the IC50 was 6.12 µM. Work on `NS(=O)(=O)CCNC(=O)c1ccc2cc(Oc3ccc(C(F)(F)F)cn3)ccc2n1` [Example 317, N-(2-sulfamoylethyl)-6-{[5-(trifluoromethyl)pyridin-2-yl]oxy}quinoline-2-carboxamide] yielded an IC50 of 3.01 µM. `O=C(c1ccc2cc(Oc3ccc(C(F)(F)F)cn3)ccc2n1)N1CCC(F)CC1` [Example 318, (4-fluoropiperidin-1-yl)(6-{[5-(trifluoromethyl)pyridin-2-yl]oxy}quinolin-2-yl)methanone] was tested, and the IC50 was 7.41 µM. Work on `O=C(c1ccc2cc(Oc3ccc(C(F)(F)F)cn3)ccc2n1)N1CC[C@@H](N2CCCCC2)C1` [Example 319, [(3R)-3-(piperidin-1-yl)pyrrolidin-1-yl](6-{[5-(trifluoromethyl)pyridin-2-yl]oxy}quinolin-2-yl)methanone] yielded an IC50 of 0.285 µM. `O=C(c1ccc2cc(Oc3nnc(C(F)(F)F)s3)ccc2n1)N1CCNCC1` [Example 320, piperazin-1-yl(6-{[5-(trifluoromethyl)-1,3,4-thiadiazol-2-yl]oxy}quinolin-2-yl)methanone] gave an IC50 of 17.1 µM. For `CC(C)NC(=O)C1CN(C(=O)c2ccc3cc(Oc4ccc(C(F)(F)F)cn4)ccc3n2)CCN1` (centres unmarked) [Example 321, N-isopropyl-4-[(6-{[5-(trifluoromethyl)pyridin-2-yl]oxy}quinolin-2-yl)carbonyl]piperazine-2-carboxamide], the IC50 was 8.07 µM. Work on `CO[C@H]1CN(C(=O)c2ccc3cc(Oc4ccc(C(F)(F)F)cn4)ccc3n2)C[C@H]1OC` [Example 324, [cis-3,4-dimethoxypyrrolidin-1-yl](6-{[5-(trifluoromethyl)pyridin-2-yl]oxy}quinolin-2-yl)methanone] yielded an IC50 of 5.01 µM. `NC(=O)[C@H]1CCCN(C(=O)c2ccc3cc(Oc4ccc(C(F)(F)F)cn4)ccc3n2)C1` [Example 325, (3S)-1-[(6-{[5-(trifluoromethyl)pyridin-2-yl]oxy}quinolin-2-yl)carbonyl]piperidine-3-carboxamide] gave an IC50 of 8.58 µM. Compound `O=C(NC1CCOCC1)c1ccc2cc(Oc3ccc(C(F)(F)F)cn3)ccc2n1` [Example 327, N-(tetrahydro-2H-pyran-4-yl)-6-{[5-(trifluoromethyl)pyridin-2-yl]oxy}quinoline-2-carboxamide] has an IC50 of 0.557 µM. `N#Cc1ccc(Oc2ccc3nc(C(=O)N4CCNCC4)ccc3c2)nc1` [Example 328, 6-{[2-(piperazin-1-ylcarbonyl)quinolin-6-yl]oxy}nicotinonitrile] showed an IC50 greater than 20 µM. For `O=C(c1ccc2cc(Oc3ccc(C(F)(F)F)cn3)ccc2n1)N1CCN2C(=O)OCC2C1` (centres unmarked) [Example 329, 7-[(6-{[5-(trifluoromethyl)pyridin-2-yl]oxy}quinolin-2-yl)carbonyl]hexahydro[1,3]oxazolo[3,4-a]pyrazin-3-one], the IC50 was 9.28 µM. `O=C(c1ccc2cc(Oc3ccc(C(F)(F)F)cn3)ccc2n1)N1CCC(F)(F)CC1` [Example 330, (4,4-difluoropiperidin-1-yl)(6-{[5-(trifluoromethyl)pyridin-2-yl]oxy}quinolin-2-yl)methanone] showed an IC50 of 2.95 µM. Work on `O=C(c1ccc2cc(Oc3ccc(C(F)(F)F)cn3)ccc2n1)N1CCN(S(=O)(=O)CCC(F)(F)F)CC1` [Example 332, (6-{[5-(trifluoromethyl)pyridin-2-yl]oxy}quinolin-2-yl) {4-[(3,3,3-trifluoropropyl)sulfonyl]piperazin-1-yl}methanone] yielded an IC50 of 10.1 µM. `O=C(c1ccc2cc(Oc3ccc(C(F)(F)F)cn3)ccc2n1)N1CCN2C(=O)OC[C@H]2C1` [Example 333, (8aR)-7-[(6-{[5-(trifluoromethyl)pyridin-2-yl]oxy}quinolin-2-yl)carbonyl]hexahydro[1,3]oxazolo[3,4-a]pyrazin-3-one] showed an IC50 greater than 20 µM. For `CC(C)(O)CCNC(=O)c1ccc2cc(Oc3ccc(C(F)(F)F)cn3)ccc2n1` [Example 334, N-(3-hydroxy-3-methylbutyl)-6-{[5-(trifluoromethyl)pyridin-2-yl]oxy}quinoline-2-carboxamide], the IC50 was 3.44 µM. Compound `O=C(NC[C@H]1CCCN1)c1ccc2cc(Oc3ccc(C(F)(F)F)cn3)ccc2n1` [Example 335, N-[(2R)-pyrrolidin-2-ylmethyl]-6-{[5-(trifluoromethyl)pyridin-2-yl]oxy}quinoline-2-carboxamide] has an IC50 of 0.573 µM. In the case of `O=C(NCC1(O)CCC1)c1ccc2cc(Oc3ccc(C(F)(F)F)cn3)ccc2n1` [Example 336, N-[(1-hydroxycyclobutyl)methyl]-6-{[5-(trifluoromethyl)pyridin-2-yl]oxy}quinoline-2-carboxamide], the IC50 is reported as 0.439 µM.

Same assay, conditions: read-out: FRET-Membrane Potential Nav1.7 IC50
`O=C(c1ccc2cc(Oc3ccc(C(F)(F)F)cn3)ccc2n1)N1CCN(CCC(F)(F)F)CC1` [Example 311, (6-{[5-(trifluoromethyl)pyridin-2-yl]oxy}quinolin-2-yl)[4-(3,3,3-trifluoropropyl)piperazin-1-yl]methanone] was tested, and the IC50 was 3.11 µM. Compound `O=C(c1ccc2cc(Oc3ccc(C(F)(F)F)cn3)ccc2n1)N1CCC(N2CCC2)C1` (centres unmarked) [Example 314, [3-(azetidin-1-yl)pyrrolidin-1-yl](6-{[5-(trifluoromethyl)pyridin-2-yl]oxy}quinolin-2-yl)methanone] has an IC50 of 0.218 µM. Work on `O=C(c1ccc2cc(Oc3ccc(C(F)(F)F)cn3)ccc2n1)N1CCC(N2CCOCC2)C1` (centres unmarked) [Example 316, [3-(morpholin-4-yl)pyrrolidin-1-yl](6-{[5-(trifluoromethyl)pyridin-2-yl]oxy}quinolin-2-yl)methanone] yielded an IC50 of 12 µM. For `CNC(=O)C1CN(C(=O)c2ccc3cc(Oc4ccc(C(F)(F)F)cn4)ccc3n2)CCN1` (centres unmarked) [Example 322, N-methyl-4-[(6-{[5-(trifluoromethyl)pyridin-2-yl]oxy}quinolin-2-yl)carbonyl]piperazine-2-carboxamide], the IC50 was 12 µM. For `O=C(NCCO)c1ccc2cc(Oc3ccc(C(F)(F)F)cn3)ccc2n1` [Example 326, N-(2-hydroxyethyl)-6-{[5-(trifluoromethyl)pyridin-2-yl]oxy}quinoline-2-carboxamide], the IC50 was 3.15 µM. Compound `O=C(N[C@@H]1CCNC1)c1ccc2cc(Oc3ccc(C(F)(F)F)cn3)ccc2n1` [Example 331, N-[(3R)-pyrrolidin-3-yl]-6-{[5-(trifluoromethyl)pyridin-2-yl]oxy}quinoline-2-carboxamide] has an IC50 of 2.64 µM.
